Values of other authors in patent US20010003742A1, “Antilipemic formulation” (priority 1998, published 2001).

Conditions: gelatine itself

Question: For gelatine, which haemostatic effect is on record?
Answer: only displays a haemostatic effect after an addition of thrombin
